How the values were obtained:
Assay in all cases: relative viability (nuclei count vs DMSO), 5 days (fraction); higher = more cells survive
[1] = compound: C#Cc1cccc(Nc2ncnc3cc(OCCOC)c(OCCOC)cc23)c1 [Erlotinib] + CC1(C)CCC(c2ccc(Cl)cc2)=C(CN2CCN(c3ccc(C(=O)NS(=O)(=O)c4ccc(N[C@H](CCN5CCOCC5)CSc5ccccc5)c(S(=O)(=O)C(F)(F)F)c4)cc3)CC2)C1 [Navitoclax] (partner 0.5 µM)
Summary of the method: (§1)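 Each reported value is a median over duplicate plates. It expresses relative viability: treated-well nuclei count divided by vehicle-well nuclei count. Lung cancer cell lines in 1536-well plates were dosed by pin tool a day after seeding, alone with one drug or with a fixed anchor-drug dose plus five library-drug doses (not always all listed) in √10 steps, and nuclei were counted after 5 days.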

[2] = compound: C#Cc1cccc(Nc2ncnc3cc(OCCOC)c(OCCOC)cc23)c1 [Erlotinib] + CS(=O)(=O)N1CCN(Cc2cc3nc(-c4cccc5[nH]ncc45)nc(N4CCOCC4)c3s2)CC1 [Pictilisib] (partner 1 µM)
Summary of the method: as §1

[3] = compound: O=C(Nc1c[nH]nc1-c1nc2ccc(CN3CCOCC3)cc2[nH]1)NC1CC1 [AT9283] + O=C(CCCCCCC(=O)Nc1ccccc1)NO [Vorinostat] (partner 1 µM)
Summary of the method: as §1

[4] = compound: C#Cc1cccc(Nc2ncnc3cc(OCCOC)c(OCCOC)cc23)c1 [Erlotinib] + CS(=O)(=O)CCNCc1ccc(-c2ccc3ncnc(Nc4ccc(OCc5cccc(F)c5)c(Cl)c4)c3c2)o1 [Lapatinib] (partner 2 µM)
Summary of the method: as §1

[5] = compound: O=C(Nc1c[nH]nc1-c1nc2ccc(CN3CCOCC3)cc2[nH]1)NC1CC1 [AT9283] + COc1cccc2cc(-c3nc([C@H]4CC[C@H](C(=O)O)CC4)n4ncnc(N)c34)[nH]c12 [OSI-027] (partner 0.5 µM)
Summary of the method: as §1

| Cell Line | relative viability ([1]; first compound 0.02 µM) | relative viability ([1]; first compound 0.2 µM) | relative viability ([1]; first compound 2 µM) | relative viability ([2]; first compound 0.02 µM) | relative viability ([2]; first compound 0.2 µM) | relative viability ([2]; first compound 0.6325 µM) | relative viability ([2]; first compound 2 µM) | relative viability ([3]; first compound 0.003 µM) | relative viability ([3]; first compound 0.03 µM) | relative viability ([3]; first compound 0.09487 µM) | relative viability ([3]; first compound 0.3 µM) | relative viability ([4]; first compound 0.02 µM) | relative viability ([4]; first compound 0.2 µM) | relative viability ([4]; first compound 0.6325 µM) | relative viability ([4]; first compound 2 µM) | relative viability ([5]; first compound 0.003 µM) | relative viability ([5]; first compound 0.03 µM) | relative viability ([5]; first compound 0.09487 µM) | relative viability ([5]; first compound 0.3 µM) | relative viability ([1]; first compound 0.6325 µM) |
| --- | --- | --- | --- | --- | --- | --- | --- | --- | --- | --- | --- | --- | --- | --- | --- | --- | --- | --- | --- | --- |
| SK-MES-1 | 1.35 | 1.21 | 0.574 | 0.287 | 0.245 | 0.258 | 0.22 | 1.19 | 1.03 | 0.304 | 0.154 | 0.511 | 0.452 | 0.476 | 0.434 | 0.74 | 0.619 | 0.215 | 0.197 |  |
| H3255 | 0.449 | 0.147 | 0.0743 | 0.497 | 0.159 | 0.118 | 0.0937 | 0.818 | 0.907 | 0.733 | 0.298 | 0.323 | 0.259 | 0.253 |  | 0.683 | 0.659 | 0.548 | 0.306 | 0.0899 |
| NCI-H2126 | 0.879 | 0.707 | 0.402 | 0.505 | 0.396 | 0.4 | 0.379 | 0.729 | 0.552 | 0.486 | 0.249 | 0.771 | 0.763 | 0.788 | 0.727 | 0.635 | 0.808 | 0.75 | 0.389 | 0.537 |
| NCI-H1703 | 1.1 | 1.09 | 1.11 | 0.233 | 0.218 | 0.29 | 0.243 |  |  |  |  | 1.42 |  | 1.21 | 0.992 |  |  |  |  | 1.32 |
| SW 1573 | 0.922 | 1.05 | 0.896 | 0.525 | 0.482 | 0.62 | 0.419 | 0.835 | 0.211 | 0.165 | 0.133 | 1.3 | 1.05 |  | 1.17 | 0.534 | 0.352 | 0.146 | 0.134 |  |
| NCI-H838 | 1.26 | 1.11 | 1.05 | 0.471 | 0.454 | 0.503 | 0.477 | 0.68 | 0.221 | 0.194 | 0.24 | 1.21 | 0.759 | 1.26 | 0.853 | 0.471 | 0.496 | 0.178 | 0.195 | 1.27 |
| NCI-H1792 | 0.451 | 0.545 | 0.579 | 0.305 | 0.183 | 0.269 | 0.21 |  |  |  |  |  | 0.877 | 1.18 | 0.842 | 0.727 | 0.868 | 0.742 | 0.404 | 0.84 |
| NCI-H1651 | 1.04 | 0.861 | 0.934 | 0.511 | 0.628 | 0.662 | 0.5 | 0.449 | 0.39 | 0.393 | 0.218 | 0.906 | 0.693 | 1.02 | 0.768 | 0.753 | 0.714 | 0.568 | 0.334 | 1.11 |
| HARA | 1.16 | 1.08 | 0.964 | 0.555 | 0.46 | 0.311 | 0.155 | 0.365 | 0.453 | 0.122 | 0.0962 | 0.857 | 0.902 | 0.976 | 0.688 | 0.612 | 0.327 | 0.073 | 0.0736 | 0.88 |
| NCI-H1944 | 0.989 | 0.912 | 0.796 | 0.357 | 0.304 | 0.346 | 0.33 | 0.532 | 0.274 | 0.214 | 0.205 | 0.79 | 0.65 | 1.05 | 0.816 | 0.391 | 0.291 | 0.201 | 0.229 | 0.941 |
| SK-LU-1 | 1.07 | 1.36 | 0.733 | 0.695 | 0.665 | 0.598 | 0.58 | 0.904 | 0.418 | 0.329 | 0.314 | 0.974 | 0.933 | 0.995 | 0.869 | 0.366 | 0.276 | 0.22 | 0.165 | 0.752 |
| NCI-H650 |  |  |  | 0.963 | 0.942 | 0.904 | 0.936 | 0.405 | 0.375 | 0.282 | 0.146 | 0.754 | 1.08 | 1.14 | 0.744 | 0.519 | 0.528 | 0.379 | 0.169 |  |
| PC-14 | 0.935 |  | 0.31 | 0.221 | 0.0861 | 0.0876 | 0.0584 | 0.79 | 0.17 | 0.107 | 0.114 | 0.276 | 0.289 | 0.307 | 0.279 | 0.878 | 0.745 | 0.0842 | 0.08 | 0.391 |
| NCI-H2170 | 0.513 | 0.377 | 0.216 | 0.316 | 0.282 | 0.236 | 0.176 | 0.765 | 0.514 | 0.272 | 0.13 | 0.283 | 0.264 | 0.293 | 0.24 | 0.663 | 0.607 | 0.298 | 0.172 | 0.451 |
| CAL-12T | 1.35 | 1.31 | 0.546 | 0.277 | 0.388 | 0.419 | 0.274 | 0.804 | 0.394 | 0.237 | 0.166 | 0.815 | 0.704 | 0.68 | 0.543 | 0.718 | 0.599 | 0.216 | 0.17 | 0.614 |
| IA-LM | 0.847 |  | 0.802 | 0.338 |  | 0.348 | 0.13 | 0.927 | 0.624 | 0.144 | 0.111 | 1.14 | 0.712 | 1.43 | 0.73 |  |  |  |  | 1.01 |
| A-427 | 0.946 | 0.99 | 0.997 | 0.826 | 0.682 | 0.829 | 0.76 | 0.902 | 0.471 | 0.269 | 0.323 | 1.04 | 1.02 | 1.12 | 0.94 | 0.421 | 0.326 | 0.159 | 0.176 | 0.978 |
